Experimental data from paper PMC5131364, “Pharmacologic modulation of RORγt translates to efficacy in preclinical and translational models of psoriasis and inflammatory arthritis” (Scientific Reports, 2016).
Read-outs that look alike come from different tables or passages of the source.

Assays:
[1] = test system: naïve CD4+ T cells under Th17-polarizing conditions; assay: In vitro mouse Th17 differentiation; assay type: cell-based; conditions: for IC50: Mus musculus, CD4+ T
Description: The following antibodies (anti-mouse or anti-human) were purchased from BD Biosciences (San Diego, CA) or eBioscience (San Diego, CA): anti-CD3-FITC (mouse 17A2 and human SK7), anti-CD4-allophycocyanin (APC), anti-CD4-PerCp, anti-CD4-FITC, anti-CD4-PE (mouse GK1.5 and human SK3), anti-CD44-PerCp (mouse IM7), anti-γδ TCR-FITC, anti-γδ TCR-PE (mouse GL3 and human B1), anti-CD62L-FITC (mouse MEL-14 and human SK11), anti-CD45RO-APC (human UCHL1), anti-CCR6-PE (human 11A9), anti-CD45-PerCp (mouse 30-F11). Human or mouse anti-IFNγ (mouse XMG1.2 and human 4S.B3), anti-TNFα (mouse MP6-XT22 and human MAB11), anti-IL-17A (mouse eBio17B7 and human eBio64DEC17), anti-IL-22 (mouse 1H8PWSR and human 22URTI), and anti-Foxp3 (mouse FJK-16s and human 36A/E7), all PE or APC conjugated, were purchased from eBioscience (San Diego, CA). Human and mouse APC conjugated CD1d tetramers pre-loaded with alpha-GalCer and negative controls were obtained from ProImmune. For intracellular staining cells were stimulated for 4 hours at 37 °C with PMA and ionomycin (0.5 μg/ml each) in the presence of brefeldin A and monensin or with leukocyte activation cocktail (BD Bioscience, San Diego, CA). Cells were stained with fluorescence-labeled antibodies for surface marker, then fixed/permeabilized (eBioscience) and stained with antibodies for intracellular cytokines. For Foxp3 staining cells were fixed/permeabilized using transcription factor buffer set (eBioscience). The data were acquired on a FACS Calibur (BD Bioscience) and analyzed using FlowJo software (Tree Star, San Carlos, CA).
Naïve CD4^+ T cells were isolated from splenocytes of C57BL/6N mice using a naïve CD4^+ T cell isolation kit II (Miltenyl Biotec, Auburn, CA), following the manufacturer’s instructions. Cells were resuspended in culture medium (RPMI-1640 medium supplemented with 10% fetal bovine serum, 50 IU/ml penicillin, 50 μg/ml streptomycin, 2 mM glutamine, and 55 μM β-mercaptoethanol), and were added to 96-well plates at 2 × 10^5 per well. […] Cells were incubated for 1 hour, after which Th17 cell differentiation medium was added with final concentrations of 1 μg/ml anti-CD3, 5 μg/mL anti-CD28 (BD Pharmingen, San Diego, CA), 10 μg/ml anti-IL-4, 10 μg/ml anti-IFNγ, 10 ng/mL IL-23, 10 ng/mL IL-6, and 10 ng/ml TGFβ (R&D Systems, Minneapolis, MN). Cells were cultured at 37 °C and 5% CO2 for 3 days. Supernatants were collected and the accumulated cytokines in culture were measured by ELISA kits (R&D Systems, Minneapolis, MN) following manufacturers’ instructions. Cells were harvested for staining and flow cytometry analysis.

[2] = test system: IL-23-induced psoriasis-like ear skin inflammation in C57BL/6N mice; assay: IL-23-induced skin inflammation in mice; assay type: in vivo, mouse; conditions: for reduction of IL-17A-producing total CD3+ T cells / reduction of IL-17A-producing γδ+ T cells: 30 mg/kg BID oral

## COc1nc2ccc([C@@](O)(c3ccc(C)nc3C)c3cnnn3C)cc2c(Cl)c1Cc1ccc(C(F)(F)F)cc1 [JNJ-54271074]
[1]; 1 μM, flow cytometry
  IL-17A-producing cells: almost completely abolished
[1]; Th17-polarizing condition, supernatant, read-out: IC50, IL-17A production
  IC50: 17 nM
[1]; flow cytometry, read-out: IC50, total IL-17A-producing cells
  IC50: 21 nM
[1]; Th17-polarizing condition, supernatant
  TNFα production: did not inhibit
[2]; 3, 10, 30 and 60 mg/kg BID oral, 7 days, dose-dependent
  skin inflammation (total skin histology scores, abscesses, acanthosis): decreased skin inflammation
[2]; 30 and 60 mg/kg, did not reach statistical significance
  ear mRNA expression of IL-17A, IL-22 and TNFα: suppressed
[2]; DLNs
  reduction of IL-17A-producing total CD3+ T cells: 71%
  reduction of IL-17A-producing γδ+ T cells: 43%
[2]; ear skin and DLNs, 30 mg/kg BID
  FOXP3+ CD4+ T cells populations, vehicle vs compound treated groups: very similar
[2]; ear skin
  reduction of IL-17A-producing total CD3+ T cells: 40%
  reduction of IL-17A-producing γδ+ T cells: 60%
[2]; oral BID, 7 days
  ear mRNA expression of IL-17F, IFNγ and IL-6: significantly inhibited
